Results on 25 molecules are retold here after patent publication US12421206B2, “Aryl-n-aryl derivatives for treating a RNA virus infection” (ABIVAX, priority 2018, dated 2025).

Broadly, the inhibition is the drop in the measured response relative to a control, in per cent. A word on the EC50: it is the concentration that produces a half-maximal response.

One assay relates to DENV-2 strain 16681. Nature of the assay: DENV-2 inhibition (cytopathic effect inhibition) using Viral ToxGlo assay in A549 cells. It counts as cell-based, Dengue 2 virus. To be noted: Dengue virus, DENV2, 120 h, compounds at 10 μM, MOI 0.5, 5 days p.i., read-out: % DENV-2 Inhibition Mean (n = 3). The protocol:
Protocol for Screening Antiviral Compounds for DENV-2 Inhibition and Cytotoxicity Using Viral ToxGlo Assay
A549 cells were maintained in Dulbecco's Modified Eagle Medium (DMEM) supplemented with 10% fetal bovine serum, 100 U/ml penicillin and 100 μg/ml streptomycin. For the purposes of the screening assay they were grown to 90% confluency, trypsinized and recovered. The trypsin was neutralised with cell culture media and cells were centrifuged at 150×g for 5 minutes before discarding the supernatant and resuspending cell pellet in assay media (DMEM supplemented with 2% fetal bovine serum and 100 U/ml penicillin and 100 μg/ml streptomycin). The cells were seeded into 96-well white clear-bottomed cell culture plates at a density of 1.0×10^4 cells/well in 50 μl. For the media/background control column assay media only was added. Cell plates were placed in a humid chamber and incubated overnight at 37° C./5% CO2. After overnight incubation cells were checked for confluency and healthy appearance.
Test compounds were prepared at a final concentration of 10 μM in a maximum DMSO concentration of 1% (final assay concentration maximal 0.1% DMSO) and added to the cell plates in volumes of 10 μl. For cell control and virus control wells the test article solvent only was added. As a positive inhibition control, 7-Deaza-2′-C-methyladenosine was added at 100 μM in 3 wells. Virus (DENV-2 strain 16681) or assay media for cytotoxicity test wells and media/cell control wells was added immediately after test articles at an MOI of 0.5, 40 for 96 well plates respectively. Virus suspension was prepared by thawing DENV-2 frozen stocks and diluting to the required concentration of plaque forming units in assay media.
Cell plates were further incubated inside a humid chamber for 5 days p.i at 37° C./5% CO2. After the incubation period cells were observed under the microscope to check for characteristic cytopathic effect in virus control wells and healthy cells in the cell control wells. After plates were adjusted to room temperature 20 μl Viral ToxGlo (Promega) was added to each well of the 96-well cell plates. Plates were incubated at room temperature for 5 minutes before measuring the luminescence on a spectrophotometer (Envision, PerkinElmer).
DENV-2 inhibition was calculated as percentage of cytopathic effect inhibition relative to the virus control and cytotoxicity as percentage of cell survival relative to cell control wells.

The next assay deals with RSV A2. The assay can be described thus: RSV inhibition (cytopathic effect inhibition) using Viral ToxGlo assay in HEp-2 cells. To be noted: human respiratory syncytial virus, RSV A2, MOI 0.5, HEp-2 cells, 72 h p.i. The assay is classed as cell-based. The protocol:
Protocol for Screening Antiviral Compounds for RSV Inhibition and Cytotoxicity Using Viral ToxGlo Assay
HEp-2 cells were maintained in Eagle's minimum essential medium (EMEM) with Earle's BSS adjusted to contain 2 mM L-glutamine, 10% fetal bovine serum, 100 U/ml penicillin and 100 μg/ml streptomycin. For the purposes of the screening assay they were grown to 90% confluency, trypsinized and recovered. The trypsin was neutralised with cell culture media and cells were centrifuged at 150×g for 5 minutes before discarding the supernatant and resuspending cell pellet in assay media (EMEM with Earle's BSS adjusted to contain 2 mM L-glutamine, 2% fetal bovine serum and 100 U/ml penicillin and 100 μg/ml streptomycin). The cells were seeded into white clear-bottomed cell culture plates at a density of 1.5×10^4 cells/well in 50 μl and 4×10^3 cells/well in 25 μl for 96 well plates and 384 well plates respectively. For the media/background control column assay media only was added. Cell plates were placed in a humid chamber and incubated overnight at 37° C./5% CO2. After overnight incubation cells were checked for confluency and healthy appearance.
Test articles were made up at 10× test concentration in a maximum DMSO concentration of 10% (final assay concentration maximal 1% DMSO) and added to the cell plates in volumes of 10 μl for 96 well plates and 5 μl for 384 well plates. For cell control and virus control wells the test article solvent only was added. Virus or assay media for cytotoxicity test wells and media/cell control wells was added immediately after test articles at an MOI of 0.5, 40 or 20 μl for 96 and 384 well plates respectively. Virus suspension was prepared by thawing RSV A2 frozen stocks and diluting to the required concentration of plaque forming units in assay media on ice.
Cell plates were further incubated inside a humid chamber for 72 h p.i at 37° C./5% CO2. After the incubation period cells were observed under the microscope to check for characteristic cytopathic effect in virus control wells and healthy cells in the cell control wells. After plates were adjusted to room temperature 20/40 μl Viral ToxGlo (Promega) was added to each well of the 384/96 well cell plates. Plates were incubated at room temperature, protected from light on a plate rocker for 20 minutes before measuring the luminescence on a spectrophotometer (Biotek Synergy HTX).
RSV inhibition was calculated as percentage of cytopathic effect inhibition relative to the virus control and cytotoxicity as percentage of cell survival relative to cell control wells. This allowed EC50 values to be calculated for each test article where a virus inhibition or cytotoxic dose response was identified.

On to `O=C(NCCC1CCCC1)c1cccc(Nc2ccc(OCc3ccccc3)cc2C2CC2)c1` [Compound 82, N-(2-(cyclopentyl)ethyl)-3-((2-cyclopropyl-4-(phenylmethoxy)phenyl)amino)benzamide], for which the inhibition at 10 µM with DENV-2 strain 16681 came out at 64%. For the same molecule, the EC50 with RSV A2 worked out at 4 nM. `Cc1cc(OCc2ccccc2)ccc1Nc1cccc(OCC(=O)O)c1` [Compound 192, 2-(3-{[4-(benzyloxy)-2-methylphenyl]amino}phenoxy)acetic acid]: the inhibition at 10 µM in the assay with DENV-2 strain 16681 was 66%.

Consider `c1ccc(COc2ccc(Nc3cccc(OC4COC4)c3)c(C3CC3)c2)nc1` [Compound 151, 2-cyclopropyl-N-[3-(oxetan-3-yloxy)phenyl]-4-[(pyridin-2-yl)methoxy]aniline], for which the inhibition at 10 µM in the assay on DENV-2 strain 16681 was 63%. Further, the EC50 with RSV A2 was 671 nM. As to `O=C(NCC1CCCC1)c1cccc(Nc2ccc(OCc3ccccn3)cc2)c1` [Compound 62, N-(cyclopentylmethyl)-3-((4-(pyridin-2-ylmethoxy)phenyl)amino)benzamide], the inhibition at 10 µM in the assay with DENV-2 strain 16681 is 55%. As to `CN(c1cccc(OCCCC2CCCCC2)c1)c1ccc(OCc2ccccn2)cc1C1CC1` [Compound 156, N-[3-(3-cyclohexylpropoxy)phenyl]-2-cyclopropyl-N-methyl-4-[(pyridin-2-yl)methoxy]aniline], the inhibition at 10 µM in the assay with DENV-2 strain 16681 amounted to 82%. For the same molecule, in the assay with RSV A2, the EC50 worked out at 1060 nM. Taken in the same sequence, the figures for `CC(C)c1cc(OCc2ccccc2)ccc1Nc1cccc(OCCCC2CCCCC2)c1` [Compound 119, 4-(benzyloxy)-N-[3-(3-cyclohexylpropoxy)phenyl]-2-(propan-2-yl)aniline] were 104% and 107 nM.

With `O=C(CCC1CCCCC1)Nc1cccc(Nc2ccc(OCc3ccccc3)cc2C(F)(F)F)c1` [Compound 98, N-(3-{[4-(benzyloxy)-2-(trifluoromethyl)phenyl]amino}phenyl)-3-cyclohexylpropanamide], the inhibition at 10 µM in the assay with DENV-2 strain 16681 came to 60%. Also, the EC50 in the assay on RSV A2 was 12 nM. With `Cc1cc(OCc2ccc(F)cc2)ccc1Nc1cccc(NC(=O)CCC2CCCCC2)c1` [Compound 140, 3-cyclohexyl-N-[3-({4-[(4-fluorophenyl)methoxy]-2-methylphenyl}amino)phenyl]propanamide], the inhibition at 10 µM with DENV-2 strain 16681 was 74%. Also, the EC50 in the assay on RSV A2 is 349 nM.

For `Cc1cc(OCc2cncnc2)ccc1Nc1cccc(OCCCC2CCCCC2)c1` [Compound 176, N-[3-(3-cyclohexylpropoxy)phenyl]-2-methyl-4-[(pyrimidin-5-yl)methoxy]aniline], the inhibition at 10 µM in the assay on DENV-2 strain 16681 was 85%. On to `CCc1cc(OCc2ccccn2)ccc1Nc1cccc(C(=O)NCCC2CCCCC2)c1` [Compound 75, N-(2-(cyclohexyl)ethyl)-3-((2-ethyl-4-(pyridin-2-ylmethoxy)phenyl)amino)benzamide], for which, in the assay on RSV A2, the EC50 was found to be 25 nM. In the case of `O=C(CCC1CCCCC1)Nc1cccc(Nc2ccc(OCc3ccc(C(F)(F)F)cc3)cc2C2CC2)c1` [Compound 169, 3-cyclohexyl-N-{3-[(2-cyclopropyl-4-{[4-(trifluoromethyl)phenyl]methoxy}phenyl)amino]phenyl}propanamide], the inhibition at 10 µM in the assay with DENV-2 strain 16681 came out at 59%. The same measure, in the same setting: then `Cc1cc(OCc2ccccc2)ccc1Nc1cccc(OCC2CCCC2)c1` [Compound 175, 4-(benzyloxy)-N-[3-(cyclopentylmethoxy)phenyl]-2-methylaniline], with 60%. Regarding `CC(C)CCNC(=O)c1cccc(Nc2ccc(OCc3ccccn3)cc2C2CC2)c1` [Compound 61, 3-((2-cyclopropyl-4-(pyridin-2-ylmethoxy)phenyl)amino)-N-isopentylbenzamide], in the assay on DENV-2 strain 16681, the inhibition at 10 µM came to 55%. For the same molecule, the EC50 in the assay on RSV A2 was determined as 54 nM. Take `O=C(CCC1CCCCC1)Nc1cc(Nc2ccc(OCc3ccccc3)cc2C(F)(F)F)ccc1F` [Compound 116, N-(5-{[4-(benzyloxy)-2-(trifluoromethyl)phenyl]amino}-2-fluorophenyl)-3-cyclohexylpropanamide]: the EC50 in the assay with RSV A2 is 93 nM. Still for that read-out and setting: with `Cc1c(NC(=O)C2(C#N)CC2)cccc1Nc1ccc(OCc2ccccn2)cc1C1CC1` [Compound 102, 1-cyano-N-[3-({2-cyclopropyl-4-[(pyridin-2-yl)methoxy]phenyl}amino)-2-methylphenyl]cyclopropane-1-carboxamide] the figure was 22 nM.

As for `O=C(NCCC(F)(F)F)c1ccccc1Nc1ccc(OCc2ccccn2)cc1C1CC1` [Compound 120, 2-({2-cyclopropyl-4-[(pyridin-2-yl)methoxy]phenyl}amino)-N-(3,3,3-trifluoropropyl)benzamide], the EC50 with RSV A2 is 110 nM. Same read-out and setting: with `O=C(CCC1CCCCC1)Nc1cccc(Nc2ccc(OCc3ccccc3)cc2C2=CCCC2)c1` [Compound 92, N-(3-{[4-(benzyloxy)-2-(cyclopent-1-en-1-yl)phenyl]amino}phenyl)-3-cyclohexylpropanamide] the figure was 4 nM.

As for `O=C(NCC1CCCCC1)c1ccccc1Nc1ccc(OCc2ccccc2)cc1C1CC1` [Compound 110, 2-{[4-(benzyloxy)-2-cyclopropylphenyl]amino}-N-(cyclohexylmethyl)benzamide], the EC50 with RSV A2 worked out at 59 nM. On to `c1ccc(COc2ccc(Nc3cccc(-n4cc(CC5CCCCC5)nn4)c3)c(C3CC3)c2)nc1` [Compound 100, N-{3-[4-(cyclohexylmethyl)-1H-1,2,3-triazol-1-yl]phenyl}-2-cyclopropyl-4-[(pyridin-2-yl)methoxy]aniline], for which the EC50 with RSV A2 stood at 16 nM. On the same count and under the same terms, with `COC(=O)C(NCCC1CCCCC1)c1cccc(Nc2ccc(OCc3ccccc3)cc2C2CC2)c1` (centres unmarked) [Compound 138, methyl 2-(3-{[4-(benzyloxy)-2-cyclopropylphenyl]amino}phenyl)-2-[(2-cyclohexylethyl)amino]acetate] the figure was 312 nM; with `c1ccc(COc2ccc(Nc3cccc(-c4cnco4)c3)c(C3CC3)c2)nc1` [Compound 179, 2-cyclopropyl-N-[3-(1,3-oxazol-5-yl)phenyl]-4-[(pyridin-2-yl)methoxy]aniline], 721 nM.

As for `Cc1c(NC(=O)C2(C(N)=O)CC2)cccc1Nc1ccc(OCc2ccccn2)cc1C1CC1` [Compound 108, N′1-[3-({2-cyclopropyl-4-[(pyridin-2-yl)methoxy]phenyl}amino)-2-methylphenyl]cyclopropane-1,1-dicarboxamide], the EC50 in the assay on RSV A2 amounted to 41 nM.

Consider `O=C(NCCC(F)(F)F)c1cccc(Nc2ccc(OCc3ccccn3)cc2)c1` [Compound 65, 3-((4-(pyridin-2-ylmethoxy)phenyl)amino)-N-(3,3,3-trifluoropropyl)benzamide], for which the inhibition at 10 µM with DENV-2 strain 16681 came out at 77%.

For `CS(=O)(=O)c1cc(OCc2ccccc2)ccc1Nc1cccc(NC(=O)CCC2CCCCC2)c1` [Compound 107, N-(3-{[4-(benzyloxy)-2-methanesulfonylphenyl]amino}phenyl)-3-cyclohexylpropanamide], the EC50 with RSV A2 is 36 nM. On the same count and under the same terms, with `O=C(NCCC1CCCC1)c1cccc(Nc2ccc(OCc3ccccc3)cc2C(F)(F)F)c1` [Compound 104, 3-{[4-(benzyloxy)-2-(trifluoromethyl)phenyl]amino}-N-(2-cyclopentylethyl)benzamide] the figure was 29 nM.
